Source: US20250136592A1, “C-LINKED INHIBITORS OF ENL/AF9 YEATS” (Bridge Medicines, priority 2021, published 2025)
Read-outs that look alike come from different tables or passages of the source.

Assays:
[1] = tested on: MV4:11 (MLL-AF4 MLL) cells; test: Cell viability assay (CellTiter-Glo), 12 days; assay type: cell-based; settings: MV4;11 cells, 12 day, read-out: CTG_MV4, 11 12 DAY_EC50
Protocol: The assays were conducted over 12 days and the cells being split on days 4 and 8. […] Blank wells received cell culture medium. Plates were incubated for 4 days at 37° C. with 5% CO2. On days 4 and day 8 the cells were split and incubated for a further 4 days whilst an aliquot of cells were taken for the CTG readout. For the cell splitting, 270 nL of compounds or DMSO was added to a new 96 well cell culture plate to which 90 μL of medium plus 10 μL of cells from the original assay plate (after mixing) or 100 μL of medium (Blank wells) was added. This was repeated on day 8.
Cell viability was assessed using the CellTiter-Glo® homogeneous luminescent assay kit (Promega, G9243), according to the manufacturer's instructions. This quantifies ATP, which indicates the presence of metabolically active cells. […] The resulting data were analyzed as follows:
where vehicle are cells treated with 0.3% DMSO, Blank is culture medium. IC50 determinations were calculated by fitting the curve using XLfit (v5.3.1.3): Y=Bottom+(Top−Bottom)/(1+10^((LogIC50−X)*HillSlope)).

ENL YEATS domain = ENL YEATS domain (Homo sapiens (Human), UniProt Q03111); test: TR-FRET ENL Screening Assay; settings: 6xHIS ENL YEATS domain binding to H3K9cr peptide
Protocol: Compounds of the invention were tested in a TR-FRET ENL Screening Assay. TR-FRET (time-resolved fluorescence energy transfer) can be used to quantify ENL YEATS domain binding to a crotonylated histone peptide (H3K9cr, aa1-20). Streptavidin-Europium (Eu) chelate binds the biotinylated peptide, while Anti-6×HIS ULight™ binds 6×HIS-ENL. When Eu chelate is excited at 320 nm, fluorescence resonance energy transfer (FRET) occurs if Eu and ULight are made proximal by ENL binding to the acyl-peptide.
Low control (LC) wells received 5 μL of assay buffer instead of ENL protein. […] The response at each compound concentration minus the LC value was converted to percent inhibition of the vehicle control group response (HC-LC).

ENL YEATS domain, sequence (Q03111 1-138): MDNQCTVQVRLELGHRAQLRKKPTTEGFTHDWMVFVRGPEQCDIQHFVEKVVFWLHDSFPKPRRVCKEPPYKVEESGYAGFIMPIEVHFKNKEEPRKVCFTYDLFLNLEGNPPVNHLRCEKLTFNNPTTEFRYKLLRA

Row | SMILES | EC50 ([1]; Homo sapiens, 288 h) | IC50 (ENL YEATS domain) | EC50 [1]
1 | CN1CCC[C@@H]1c1cc2cnc(NC(=O)c3ccc4[nH]nc(Cl)c4c3)cc2[nH]1 [Example 43] | 256 nM | 37 nM | 
2 | CN1CCC[C@@H]1c1cc2cnc(NC(=O)c3ccc4nnn(C)c4c3)cc2[nH]1 [Example 72] | 2570 nM | 120 nM | 
3 | CN1CCC[C@@H]1c1cc2cnc(NC(=O)c3ccn4c(C5COC5)ncc4c3)cc2[nH]1 [Example 6, (R)—N-(2-(1-methylpyrrolidin-2-yl)-1H-pyrrolo[3,2-c]pyridin-6-yl)-3-(oxetan-3-yl) imidazo[1,5-a]pyridine-7-carboxamide] |  | 106 nM | 33 nM
4 | COc1c(C(=O)Nc2cc3[nH]c([C@H]4CCCN4C)cc3cn2)ccc2c(C)n[nH]c12 [Example 54] | 621 nM | 318 nM | 
5 | Cc1nccc2ccc(C(=O)Nc3cc4[nH]c([C@H]5CCCN5C)cc4cn3)cc12 [Example 83] | 229 nM | 64 nM | 
6 | COCCNc1nn(C)c2cc(C(=O)Nc3cc4[nH]c([C@H]5CCCN5C)cc4cn3)ccc12 [Example 51] | 1200 nM | 100 nM | 
7 | Cc1ncn2cc(C(=O)Nc3cc4[nH]c([C@H]5CCCN5C)cc4cn3)ccc12 [Example 32] | 12200 nM | 58 nM | 
8 | Cc1nn(C)c2cc(C(=O)Nc3cc4[nH]c([C@H]5CCCN5C)cc4cn3)ccc12 [Example 40] | 88 nM | 34 nM | 
9 | CN1CCC[C@@H]1c1cc2cnc(NC(=O)c3ccc4c(ccn4C)c3)cc2[nH]1 [Example 60] | 298 nM | 148 nM | 
10 | CN1CCC[C@@H]1c1cc2cnc(NC(=O)c3ccc4cnn(C)c4c3)cc2[nH]1 [Example 38] | 87 nM | 94 nM | 
11 | CN1CCC[C@@H]1c1cc2cnc(NC(=O)c3ccc4[nH]nc(C(F)(F)F)c4c3)cc2[nH]1 [Example 33] | 1780 nM | 42 nM | 
12 | CC(C)c1ncc2cc(C(=O)Nc3cc4[nH]c([C@H]5CCCN5C)cc4cn3)ccn12 [Example 67] | 38 nM | 75 nM | 
13 | CN1CCC[C@@H]1c1cc2ncc(NC(=O)c3ccc4c(F)n[nH]c4c3F)cc2[nH]1 [Example 74] | 1420 nM | 79 nM | 
14 | Cc1ccc2cc(C(=O)Nc3ccc4cc([C@H]5CCCN5C)[nH]c4c3)c(F)cc2n1 [Example 76] |  | 136 nM | 723 nM
15 | CN1CCC[C@@H]1c1cc2cnc(NC(=O)c3ccc4c(c3)nnn4C)cc2[nH]1 [Example 57] | > 30000 nM | 106 nM | 
16 | Cc1nc(C)n2cc(C(=O)Nc3cc4[nH]c([C@H]5CCCCN5C)cc4cn3)ccc12 [Example 90] | 144 nM | 51 nM | 
17 | CN1CCCC[C@@H]1c1cc2cnc(NC(=O)c3ccc4cnn(C)c4c3)cc2[nH]1 [Example 8, 1-methyl-N-[2-[(2R)-1-methylpiperidin-2-yl]-1H-pyrrolo[3,2-c]pyridin-6-yl]indazole-6-carboxamide] | 123 nM | 100 nM | 
18 | CN1CCC[C@@H]1c1cc2cnc(NC(=O)c3ccc4c(C(F)F)nn(C)c4c3)cc2[nH]1 [Example 78, (R)-3-(difluoromethyl)-1-methyl-N-(2-(1-methylpyrrolidin-2-yl)-1H-pyrrolo[3,2-c]pyridin-6-yl)-1H-indazole-6-carboxamide] | 167 nM | 14 nM | 
19 | Cc1cnn2ccc(C(=O)Nc3cc4[nH]c([C@H]5CCCN5C)cc4cn3)cc12 [Example 36] | 853 nM | 43 nM | 
20 | CN1CCCC[C@@H]1c1cc2cnc(NC(=O)c3ccc4c(ccc(=O)n4C)c3)cc2[nH]1 [Example 99, (R)-1-methyl-N-(2-(1-methylpiperidin-2-yl)-1H-pyrrolo[3,2-c]pyridin-6-yl)-2-oxo-1,2-dihydroquinoline-6-carboxamide] | 293 nM | 56 nM | 
21 | CN1CCC[C@@H]1c1cc2cnc(NC(=O)c3ccc4ncn(C)c4c3)cc2[nH]1 [Example 63] | 7020 nM | 95 nM | 

Row | SMILES | EC50 ([1]; Homo sapiens, 288 h) | IC50 (ENL YEATS domain) | EC50 [1]
22 | Cc1nn(C)c2ccc(C(=O)Nc3cc4[nH]c([C@H]5CCCCN5C)cc4cn3)cc12 [Example 87] | 172 nM | 47 nM | 
23 | CN1CCC[C@@H]1c1cc2cnc(NC(=O)c3ccn4c(C5CC5)ncc4c3)cc2[nH]1 [Example 68] | 48 nM | 35 nM | 
24 | CN1CCC[C@@H]1c1cc2cnc(NC(=O)c3ccc4c(N)nccc4c3)cc2[nH]1 [Example 41] | 72 nM | 14 nM | 
25 | Cc1ncc2c(F)c(C(=O)Nc3cnc4cc([C@H]5CCCN5C)[nH]c4c3)ccn12 [Example 75] | 2410 nM | 126 nM | 
26 | Cc1noc2cc(C(=O)Nc3ccc4nc([C@H]5CCCN5C)[nH]c4c3)c(F)cc12 [Example 14] | 4640 nM | 178 nM | 
27 | CC(O)c1ncc2cc(C(=O)Nc3cc4[nH]c([C@H]5CCCN5C)cc4cn3)ccn12 (stereo partly drawn) [Example 4, 3-(1-hydroxyethyl)-N-(2-((R)-1-methylpyrrolidin-2-yl)-1H-pyrrolo[3,2-c]pyridin-6-yl) imidazo[1,5-a]pyridine-7-carboxamide] |  | 203 nM | 4370 nM
28 | CN1CCC[C@@H]1c1cc2cnc(NC(=O)c3ccc4ccn(C)c4c3)cc2[nH]1 [Example 62] | 597 nM | 465 nM | 
29 | CN1C(=O)COc2cc(C(=O)Nc3cc4[nH]c([C@H]5CCCCN5C)cc4cn3)ccc21 [Example 105, (R)-4-methyl-N-(2-(1-methylpiperidin-2-yl)-1H-pyrrolo[3,2-c]pyridin-6-yl)-3-oxo-3,4-dihydro-2H-benzo[b][1,4]oxazine-7-carboxamide] | 416 nM | 145 nM | 
30 | CN1CCC[C@@H]1c1cc2cnc(NC(=O)c3ccn4ccnc4c3)cc2[nH]1 [Example 45] | 6950 nM | 293 nM | 
31 | Cc1ncn2ccc(C(=O)Nc3cc4[nH]c([C@H]5CCCN5C)cc4cn3)cc12 [Example 70] | 189 nM | 110 nM | 
32 | CN1CCC[C@@H]1c1nc2cc(NC(=O)c3ccc4c(c3)[nH]c(=O)n4C)ccc2[nH]1 [Example 26] | 374 nM | 145 nM | 
33 | Cc1ncc2ccc(C(=O)Nc3cc4[nH]c([C@H]5CCCN5C)cc4cn3)cn12 [Example 28] | 186 nM | 133 nM | 
34 | CN1CCCC[C@@H]1c1cc2cnc(NC(=O)c3ccc4c(=O)n(C)cnc4c3)cc2[nH]1 [Example 101, (R)-3-methyl-N-(2-(1-methylpiperidin-2-yl)-1H-pyrrolo[3,2-c]pyridin-6-yl)-4-oxo-3,4-dihydroquinazoline-7-carboxamide] | 426 nM | 177 nM | 
35 | CN1CCC[C@@H]1c1cc2cnc(NC(=O)c3ccc4c(C(F)(F)F)ncn4c3)cc2[nH]1 [Example 37] | 47 nM | 55 nM | 
36 | Cc1nn(C)c(=O)c2ccc(C(=O)Nc3cc4[nH]c([C@H]5CCCCN5C)cc4cn3)cc12 [Example 104, (R)-2,4-dimethyl-N-(2-(1-methylpiperidin-2-yl)-1H-pyrrolo[3,2-c]pyridin-6-yl)-1-oxo-1,2-dihydrophthalazine-6-carboxamide] | 492 nM | 160 nM | 
37 | CN1CCC[C@@H]1c1cc2cnc(NC(=O)c3ccc4c(C5CC5)nn(C)c4c3)cc2[nH]1 [Example 29] | 1120 nM | 21 nM | 
38 | Cc1nc2cc(C(=O)Nc3cc4[nH]c([C@H]5CCCN5C)cc4cn3)ccc2[nH]1 [Example 61] | 2860 nM | 90 nM | 
39 | Cc1[nH]c2ccc(C(=O)Nc3cc4[nH]c([C@H]5CCCN5C)cc4cn3)cc2c1C [Example 58] | 8580 nM | 208 nM | 
40 | CN1CCCC[C@@H]1c1cc2cnc(NC(=O)c3ccc4c(c3)N(C)S(=O)(=O)C4)cc2[nH]1 [Example 96] | 319 nM | 250 nM | 
41 | CN1CCC[C@@H]1c1cc2cnc(NC(=O)c3ccc4c(F)nn(C)c4c3)cc2[nH]1 [Example 55] | 688 nM | 18 nM | 
